Where “and” joins values, the source holds several entries; their conditions need not be identical. Equal values may be shown once.
Columns and labels:
[1] = system: NMDA-R; settings: cited from earlier work
[2] = system: ion channel binding site of NMDA receptors; assay: [^18F]PK-209 brain PET, test–retest and kinetic modeling; format: in vivo, human; settings: for K i: net influx rate, individual subjects S1–S5
Experimental: In total, 20 PET scans were acquired on a Gemini TF-64 PET/CT scanner (Philips Medical Systems, Cleveland, OH, USA). Five subjects underwent [^18F]PK-209 test–retest (TRT) scans 31–61 days apart over a period of 211 days. Another five subjects underwent baseline and ketamine scans 13–161 days apart over a period of 258 days. At the start of each scan [^18F]PK-209 was injected as an intravenous bolus with a mean injected activity of 187 ± 7 MBq. All scans were performed between 12:00 and 15:00 h to minimize diurnal variation. Duration of daylight on each scan day was calculated to investigate seasonal changes in tracer binding. Dynamic PET data were acquired for 120 min and binned into 25 time frames (1 × 15, 3 × 5, 3 × 10, 4 × 60, 2 × 150, 2 × 300, 10 × 600 s). PET was followed by a low-dose CT (30 mAs, 120 kVp) for attenuation correction and localization. Data were reconstructed using a three-dimensional row action maximum likelihood reconstruction algorithm (3-D RAMLA). Acquired PET data were normalized and corrected for dead time, randoms, scatter, attenuation, and decay.
Prior to the PET studies, structural three-dimensional coronal T1-weighted magnetic resonance images (MRI) were acquired for all subjects on a 1.5T Sonata scanner (Siemens Medical Solutions, Erlangen, Germany) with 160 coronal slices using echo time 3.97 ms, repetition time 2700 ms, flip angle 8°, and voxel size 1.0 × 1.5 × 1.0 mm^3. Subject motion was checked by visual inspection of the alignment of intrasubject PET frames, and no frames were excluded due to excessive movement. T1-weighted MRI scans were co-registered to an average of the PET frames from ~ 4–70 min p.i. using VINCI software. The co-registered MRI scans were segmented into gray matter (GM), white matter, and extra-cerebral fluid, using PVE-lab. Subsequently, 68 regions of interest (ROIs), including whole brain, were derived from the Hammers atlas and used to extract GM time-activity curves (TACs). As a last step, the TACs of 60 out of the 67 ROIs were redefined into nine volume-weighted ROIs by combining the radioactivity at each timepoint according to the equation Bq¯=∑iαi×Bqi/∑iαi , where αi is the volume (in mm^3) of region i, and Bqi the counts per mm^3 of region i. The selection of ROIs was based on the widespread NMDA-R availability in the brain: frontal, temporal, occipital, and parietal cortices; hippocampus; thalamus; insula; brainstem; dorsal striatum; and cerebellum, as well as whole brain GM from the Hammers atlas. Standardized uptake values (SUV; equalling measured activity divided by injected dose per body weight) were calculated for whole brain GM.
Using the metabolite-corrected arterial plasma input function, all GM TACs were fitted to single-tissue (1T2k), two-tissue irreversible (2T3k), and reversible (2T4k) compartmental models, both with and without an additional parameter for fractional blood volume (VB). The non-metabolite-corrected arterial whole blood curve was used as input function for VB. The optimal tracer kinetic model for describing in vivo kinetics of [^18F]PK-209 was determined according to the Akaike Information Criterion (AIC). Depending on the model preference, outcome measures were the net influx constant (Ki = K1 k3/(k2 + k3)) or the distribution volume (VT=K1/k2(1+k3/k4)) . For subsequent group level analysis (e.g., TRT variability and ketamine effects), all scans were analyzed using the same, most preferred, tracer kinetic model. Non-displaceable distribution volumes (VND = K1/k2) as well as K1 and k3 values are also reported separately.
The absolute percentage TRT variability of kinetic parameters between test and retest scans was calculated using the equation TRT variability = 2 · (ρretest − ρtest)/(ρtest + ρretest) · 100, where ρ is the kinetic parameter of interest. The between-subject coefficient of variation was calculated as the standard deviation divided by the sample mean · 100. […]

CSc1ccc(Cl)c(NC(=N)N(C)c2cccc(OC[18F])c2)c1 [[^18F]PK-209, 3-(2-chloro-5-(methylthio)phenyl)-1-(3-([^18F]fluoromethoxy)phenyl)-1-methylguanidine]
reduction in mean SUVAUC after MK-801 administration ([1]; non-human primate): 15%
volume of distribution (VT) compared with baseline ([1]; rhesus monkeys, IV 0.3 mg ∙ kg^−1 MK-801 30 min before PET): reduced the volume of distribution (VT) compared with baseline in two out of three subjects
retention in NMDA-R-rich cortical regions relative to the cerebellum ([1]; rhesus monkeys): prolonged retention
Mean test K i ([2]; 2T3k_VB, population IF): 0.0152 min⁻¹
Mean retest K i ([2]; 2T3k_VB, single scan IF): 0.0143 min⁻¹
Mean test K i ([2]; 2T3k_VB, single scan IF): 0.0183 min⁻¹
Mean retest K 1 ([2]; human, in vivo): 0.426 mL · cm^3 · min^−1
Mean retest V ND ([2]; human, in vivo): 7.34
Mean retest k 3 ([2]; human, in vivo): 0.0021 min⁻¹
Mean test K 1 ([2]; human, in vivo): 0.473 mL · cm^3 · min^−1
Mean test K i ([2]; human, in vivo): 0.0161 min⁻¹
Mean test V ND ([2]; human, in vivo): 9.09
Mean test k 3 ([2]; human, in vivo): 0.0021 min⁻¹
peak uptake SUV ([2]; human, in vivo): 3.6-5.7
time of peak uptake ([2]; human, in vivo): around 10 min
whole brain SUV90–120 ([2]; human, in vivo): 1.64
brain activity as % of the peak ([2]; human, in vivo, 120 min): 25-40%
defluorination (radioactivity uptake in jaw and skull) ([2]; in vivo): no defluorination
K i ([2]; 2T3k_VB, population IF, retest scan): 0.0201 min⁻¹
K i ([2]; 2T3k_VB, population IF, test scan): 0.0147 min⁻¹ and 0.0193 min⁻¹
K i ([2]; 2T3k_VB, single scan IF, retest scan): 0.0182 min⁻¹ and 0.0152 min⁻¹
K i ([2]; 2T3k_VB, within-subject IF, retest scan): 0.0162 min⁻¹
K i ([2]; 2T3k_VB, within-subject IF, test scan): 0.0118 min⁻¹
whole brain SUV90–120 ([2]; test scans, average): 1.68

— publication PMC6063804 (EJNMMI Research, 2018)
